Experimental data taken from PubChem BioAssay (NCI).
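Tested at 5 concentrations; 48 h exposure; 96-well plates; endpoints linearly interpolated, else capped at highest concentration. At the GI50, growth is halved. TGI: concentration producing complete growth inhibition.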

Columns and labels:
Assay in all cases: growth of human tumour cells (NCI), 48 h
COLO 205 colon = tested on: COLO 205 colon
HCT-116 colon = tested on: HCT-116 colon
HCT-15 colon = tested on: HCT-15 colon
HL-60(TB) leukemia = tested on: HL-60(TB) leukemia
K-562 leukemia = tested on: K-562 leukemia
KM12 colon = tested on: KM12 colon
MALME-3M melanoma = tested on: MALME-3M melanoma
NCI-H460 lung = tested on: NCI-H460 lung
RXF 393 renal = tested on: RXF 393 renal
SF-268 CNS = tested on: SF-268 CNS
SNB-19 CNS = tested on: SNB-19 CNS
TK-10 renal = tested on: TK-10 renal
NCI-H226 lung = tested on: NCI-H226 lung
SNB-75 CNS = tested on: SNB-75 CNS

| SMILES | TGI (COLO 205 colon) | TGI (HCT-116 colon) | TGI (HCT-15 colon) | TGI (HL-60(TB) leukemia) | TGI (K-562 leukemia) | TGI (KM12 colon) | TGI (MALME-3M melanoma) | TGI (NCI-H460 lung) | TGI (RXF 393 renal) | TGI (SF-268 CNS) | TGI (SNB-19 CNS) | TGI (TK-10 renal) | TGI (NCI-H226 lung) | TGI (SNB-75 CNS) | GI50 (MALME-3M melanoma) | GI50 (HL-60(TB) leukemia) | GI50 (NCI-H460 lung) |
| --- | --- | --- | --- | --- | --- | --- | --- | --- | --- | --- | --- | --- | --- | --- | --- | --- | --- |
| C=C(C)[C@@H]1CC[C@]2(C(=O)O)CC[C@]3(C)[C@H](CC[C@@H]4[C@@]5(C)CC[C@H](C(=O)/C=C/c6ccc(O)cc6)C(C)(C)[C@@H]5CC[C@]43C)[C@@H]12 | 9.53 µM | > 100 µM | 17.3 µM | 12.7 µM | > 100 µM | 18.4 µM | 70.1 µM | 17.3 µM | 65100 nM | 94.6 µM | 27.7 µM | 20.9 µM |  |  |  |  |  |
| CC1=NN(C(=O)Cc2ccccc2)C(=O)/C1=C\C=C\c1ccccc1 | > 100 µM | > 100 µM | > 100 µM | > 100 µM | > 100 µM | > 100 µM | > 100 µM |  |  | > 100 µM | > 100 µM | > 100 µM | > 100 µM | > 100 µM |  |  |  |
| CC(=O)O[C@H]1C(=O)[C@@]2(C)[C@H]([C@H](OC(=O)C3CCCCC3)[C@]3(O)C[C@H](OC(=O)[C@H](O)[C@@H](NC(=O)C4CCCCC4)C4CCCCC4)C(C)=C1C3(C)C)[C@]1(OC(C)=O)CO[C@@H]1C[C@@H]2O | 0.0266 µM | 3.33 µM | 4.42 µM |  | 8.96 µM | 5.53 µM | 4.96 µM | 3.87 µM | 555 nM | 8.14 µM | 13.3 µM | 1.3 µM | 3.88 µM | 1.12 µM |  |  |  |
| O=C(c1ccncc1)n1nc(-c2ccccc2)c(N=Nc2ccc([N+](=O)[O-])cc2)c1-c1ccccc1 | > 100 µM | > 100 µM |  | > 100 µM | > 100 µM | > 100 µM | > 100 µM |  |  | > 100 µM | > 100 µM | > 100 µM | > 100 µM | > 100 µM |  |  |  |
| CCOC(=O)CC[C@@H](NC(=O)c1ccc(N[C@@H]2c3cc4c(cc3C(c3cc(OC)c(O)c(OC)c3)C3C(=O)OC[C@@H]32)OCO4)cc1)C(=O)OCC (some centres undefined) |  |  | 0.233 µM | 0.05 µM | > 10 µM |  | 0.236 µM | 0.0174 µM |  | 0.0686 µM | 0.116 µM | 0.375 µM |  |  |  |  |  |
| CCC1(N=[N+]=[N-])C(=O)Nc2cc(C)ccc2C1=O (centres undefined) | > 100 µM | > 100 µM | > 100 µM | 53.6 µM | > 100 µM | > 100 µM | > 100 µM | > 100 µM |  | > 100 µM | > 100 µM | > 100 µM |  | > 100 µM |  |  |  |
| CN(C)CCO/N=C1/C=C2CC[C@H]3[C@@H]4CC[C@H](O)[C@@]4(C)CC[C@@H]3[C@@]2(C)CC1 | 34.9 µM | 31.5 µM | 47.7 µM |  | 56.8 µM | 32.4 µM |  | 21.9 µM | 27700 nM | 31.6 µM | > 100 µM | 28.6 µM | 8.87 µM | 10.4 µM |  |  |  |
| [N-]=[N+]=NC1C(Br)C(=O)NC(=O)N1[C@H]1C[C@H](O)[C@@H](CO)O1 (some centres undefined) | > 100 µM |  |  | > 100 µM | > 100 µM | > 100 µM | > 100 µM | > 100 µM | > 100000 nM | > 100 µM | > 100 µM | > 100 µM |  | > 100 µM | 15.5 µM |  |  |
| COc1cc2[nH]c(-c3cccc(N(C)C)c3)cc(=O)c2cc1OC | 19.1 µM | > 100 µM | > 64.6 µM | > 24.6 µM | > 100 µM | > 60.1 µM | > 100 µM | > 100 µM |  | > 100 µM | > 100 µM | > 100 µM | > 25.3 µM |  |  |  |  |
| C=C[C@@]1(C)CC(=O)[C@]2(O)[C@@]3(C)[C@@H](OC(C)=O)CCC(C)(C)[C@@H]3[C@H](OC(C)=O)[C@H](OC(C)=O)[C@@]2(C)O1 |  | > 100 µM | > 100 µM |  | > 100 µM | > 100 µM |  | > 100 µM |  |  | > 100 µM |  | > 100 µM | > 100 µM |  |  |  |
| Cc1cc(Cl)ccc1N=NC(=O)NNc1ccc(Cl)cc1C |  | 26.7 µM | 25.8 µM | 45.8 µM | 63 µM |  | 37.9 µM | 27.4 µM |  | 37.5 µM | 48.9 µM | 38.3 µM | 36.1 µM | 33.3 µM |  |  |  |
| CCCCCCCCCCCCCCCCP(=O)(O)OP(=O)(O)OCC1OC(n2cnc3c(N)ncnc32)C(O)C1O (centres undefined) | > 100 µM | 47.3 µM | 59.4 µM | > 100 µM | > 100 µM | 53.8 µM | 44.8 µM | 58.4 µM |  | 95.2 µM | 42 µM | 34.3 µM | 39.6 µM | 45.3 µM |  |  |  |
| CC1(C)C(=O)N=C(N)N1C(=O)OCc1ccccc1 | > 100 µM | > 100 µM | > 100 µM | > 100 µM | > 100 µM | > 100 µM | > 100 µM | > 100 µM |  | > 100 µM | > 100 µM | > 100 µM | > 100 µM | > 100 µM |  |  |  |
| CC1NC(/C(=C/c2ccccc2O)NC(=O)c2ccccc2)OC1=O (centres undefined) | > 50 µM | > 50 µM | > 50 µM | > 50 µM | > 50 µM | > 50 µM | > 50 µM |  |  |  | > 50 µM | > 50 µM | > 50 µM | > 50 µM |  |  |  |
| C=C[C@H]1CN2CCc3c([nH]c4c([C@H]5CCCN5C)c(O)ccc34)[C@@H]2C[C@@H]1C[C@H]1c2[nH]c3ccccc3c2CCN1C | 2.83 µM | 2.61 µM | 2.3 µM | 0.564 µM |  | 2.82 µM | 3.19 µM | 3.53 µM | 2250 nM | 2.97 µM | 3.57 µM | 3.36 µM |  | 2.4 µM |  | 56.2 nM | 1740 nM |
| C=CCOCn1ccc(=O)[nH]c1=O | > 100 µM | > 100 µM | > 100 µM | > 100 µM | > 100 µM | > 100 µM | > 100 µM | > 100 µM |  | > 100 µM | > 100 µM | > 100 µM | > 100 µM | > 100 µM |  |  |  |
| CCN(CC)Cc1cc(Nc2c3ccccc3nc3c2[nH]c2ccccc23)ccc1O | 2.19 µM | 1.91 µM | 3.25 µM |  | > 100 µM | 4.66 µM | 3.31 µM | 2.71 µM | 2770 nM |  | 5.03 µM | 8.61 µM | 5.06 µM | 3.35 µM |  |  |  |
